Marks after values point to notes of the source that are not given here. Strand notation (5' to 3'): a small letter for the sugar, then the base; units joined by * are phosphorothioate-linked, units joined directly phosphodiester-linked; [ ] holds rarer units or linkages, { } end groups; capitals alone tell only the bases. k = constrained ethyl (cEt); [5mC] = 5-methylcytosine; d = 2'-deoxy (DNA)
The substances below were run on Yap1 mRNA (assay: Antisense inhibition of human Yap1 in A-431 cells by cEt gapmers, single dose (Example 2, RTS4814)). Settings: A-431 cells, 5,000 cells per well, free uptake, 2,000 nM modified oligonucleotide, approx. 48 hours, RTS4814, normalized to RIBOGREEN; Table 4; asterisk (*) = targets amplicon region of primer probe set.
Format: cell-based
Procedure, shortened: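 Each 16-nucleoside gapmer (ten-deoxy gap, three-cEt wings) is tested once at 2,000 nM in A-431 cells by free uptake. Yap1 mRNA after about 48 hours is measured by quantitative RT-PCR and expressed relative to untreated control.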

Substance | YAP1 (% UTC)
716565 (kG*kG*kG*d[5mC]*dT*dA*dA*d[5mC]*dT*dA*d[5mC]*dA*dT*kT*kG*k[5mC]; antisense) [Compound 716565] | 129 % UTC

Same assay, conditions: Table 5; A-431 cells, 5,000 cells per well, free uptake, 2,000 nM modified oligonucleotide, approx. 48 hours; RTS4814; normalized to RIBOGREEN; Yap1 mRNA relative to untreated control cells

Substance | YAP1 (% UTC)
716371 (kT*kG*kG*dA*dG*dT*d[5mC]*dA*dG*dG*dG*d[5mC]*dT*k[5mC]*k[5mC]*kT; antisense) [Compound 716371] | 115 % UTC
716482 (k[5mC]*kT*kA*dT*d[5mC]*d[5mC]*dA*dG*dG*dG*dT*d[5mC]*dA*kA*kT*kT; antisense) [Compound 716482] | 83 % UTC
716548 (kG*kA*kG*dT*dT*dT*d[5mC]*dA*dA*d[5mC]*dA*d[5mC]*dT*kG*kA*kT; antisense) [Compound 716548] | 31 % UTC
716551 (k[5mC]*kG*k[5mC]*dT*dA*dG*dA*dA*dA*dA*dG*dT*dG*kT*kT*kA; antisense) [Compound 716551] | 76 % UTC
716350 (k[5mC]*kT*k[5mC]*dG*dG*dA*d[5mC]*d[5mC]*dT*dG*d[5mC]*dG*dG*k[5mC]*kG*k[5mC]; antisense) [Compound 716350] | 99 % UTC
716500 (kA*kA*k[5mC]*dT*dT*d[5mC]*dT*dT*dA*d[5mC]*dT*dT*d[5mC]*k[5mC]*kA*kA; antisense) [Compound 716500] | 18 % UTC
716557 (kA*kT*kT*dG*dG*dT*dA*d[5mC]*dT*dA*dT*dA*dT*kA*kT*kA; antisense) [Compound 716557] | 80 % UTC

Same assay, conditions: Table 18; A-431 cells, 5,000 cells per well, free uptake, 2,000 nM modified oligonucleotide, approx. 48 hours; RTS4814; normalized to RIBOGREEN; Yap1 mRNA as percent of untreated control

Substance | YAP1 (% UTC)
1076164 (kT*kG*kA*dT*dA*dT*dA*dA*dG*dT*dT*dA*d[5mC]*k[5mC]*kA*kA; antisense) [Compound 1076164] | 50 % UTC
1075588 (kA*k[5mC]*kT*dT*dA*dT*dT*dA*dG*d[5mC]*dA*d[5mC]*d[5mC]*kT*kG*kG; antisense) [Compound 1075588] | 27 % UTC
1074820 (kA*kA*kG*dT*dG*dT*dT*dA*dA*dG*d[5mC]*dA*d[5mC]*kT*kG*kA; antisense) [Compound 1074820] | 85 % UTC

Same assay, conditions: Table 19; A-431 cells, 5,000 cells per well, free uptake, 2,000 nM modified oligonucleotide, approx. 48 hours; RTS4814; normalized to RIBOGREEN; Yap1 mRNA as percent of untreated control

Substance | YAP1 (% UTC)
1075973 (k[5mC]*k[5mC]*kG*d[5mC]*dA*dA*d[5mC]*dA*d[5mC]*d[5mC]*dA*dT*dT*k[5mC]*kT*kT; antisense) [Compound 1075973] | 8 % UTC
1074373 (antisense kG*k[5mC]*kT*dT*dT*dG*dG*dT*dT*dG*dA*dT*dA*kG*kT*kA) [Compound 1074373] | 26 % UTC
1075237 (antisense kG*k[5mC]*kT*dG*dA*dA*dA*dA*dT*dG*d[5mC]*dT*dA*kA*k[5mC]*kT) [Compound 1075237] | 105 % UTC

Same assay, conditions: Table 20; Yap1 mRNA, percent of untreated control; 3-10-3 cEt gapmers targeting SEQ ID NO.: 1 and 2

Substance | YAP1 (% UTC)
1076166 (kA*kT*kT*dT*dA*d[5mC]*dA*d[5mC]*d[5mC]*dA*d[5mC]*d[5mC]*dG*k[5mC]*k[5mC]*k[5mC]; antisense) [Compound 1076166] | 77 % UTC
1075014 (antisense kG*kG*kA*dG*dA*dA*dA*dT*dA*dA*dA*dA*dG*kT*k[5mC]*kG) [Compound 1075014] | 46 % UTC
1074438 (kG*kA*k[5mC]*dA*dT*dG*dA*dA*dG*d[5mC]*dA*dT*d[5mC]*kT*kG*kA; antisense) [Compound 1074438] | 1* % UTC
1074630 (antisense kA*kG*kA*dG*dA*dT*dT*dT*dT*dA*dT*dG*d[5mC]*k[5mC]*kT*kG) [Compound 1074630] | 5 % UTC

Same assay, conditions: Table 21; Yap1 mRNA, percent of untreated control; 3-10-3 cEt gapmers targeting SEQ ID NO.: 1 and 2

Substance | YAP1 (% UTC)
1074791 (k[5mC]*kT*k[5mC]*d[5mC]*dA*dT*d[5mC]*dA*dA*d[5mC]*d[5mC]*dA*dT*kA*kA*kG; antisense) [Compound 1074791] | 20 % UTC
1074823 (kG*kA*kG*d[5mC]*dA*d[5mC]*dT*d[5mC]*dA*dT*dT*dT*d[5mC]*kT*k[5mC]*kA; antisense) [Compound 1074823] | 77 % UTC

Same assay, conditions: Table 22; Yap1 mRNA as percent of untreated control; 3-10-3 cEt gapmers; single dose

Substance | YAP1 (% UTC)
1075752 (k[5mC]*kA*kT*dA*dA*dT*dT*dA*dT*dA*d[5mC]*dT*dG*kA*kT*k[5mC]; antisense) [Compound 1075752] | 19 % UTC
1074856 (antisense kT*kT*kT*dG*dA*d[5mC]*dA*dA*dG*dT*dG*dT*dG*k[5mC]*kA*kT) [Compound 1074856] | 15 % UTC
1076200 (kG*kA*kT*dT*dA*d[5mC]*dA*d[5mC]*dT*dA*dT*d[5mC]*dA*kA*kA*kA; antisense) [Compound 1076200] | 67 % UTC
1075272 (antisense kA*kA*kT*dT*dA*dG*d[5mC]*d[5mC]*dA*dG*d[5mC]*dA*dT*kG*k[5mC]*kA) [Compound 1075272] | 110 % UTC
1075048 (antisense kG*kT*kA*dA*dA*dA*dT*dT*dA*dG*dA*d[5mC]*dT*k[5mC]*k[5mC]*k[5mC]) [Compound 1075048] | 4 % UTC
1076296 (kT*kA*kT*dA*dA*dA*dG*dA*d[5mC]*d[5mC]*d[5mC]*dA*dA*kT*kG*k[5mC]; antisense) [Compound 1076296] | 68 % UTC

Same assay, conditions: Table 23; Yap1 mRNA as percent of untreated control; 3-10-3 cEt gapmers; single dose

Substance | YAP1 (% UTC)
1075977 (kG*kA*kT*dT*dA*dA*dA*dA*dG*dT*d[5mC]*dG*dG*kG*k[5mC]*k[5mC]; antisense) [Compound 1075977] | 73 % UTC
1074441 (k[5mC]*kA*kA*dA*d[5mC]*dT*dA*dA*dA*dT*dG*d[5mC]*dT*kG*kT*kG; antisense) [Compound 1074441] | 5* % UTC
1075081 (antisense kG*kA*kT*dT*dA*d[5mC]*dA*dA*dA*dG*dA*d[5mC]*dA*kG*k[5mC]*k[5mC]) [Compound 1075081] | 7 % UTC
1076329 (kA*kA*kT*dT*dA*dT*dA*d[5mC]*dT*dG*dG*d[5mC]*dT*kA*k[5mC]*kT; antisense) [Compound 1076329] | 14 % UTC
1075881 (kG*kA*kT*dT*dA*dA*d[5mC]*dT*dA*d[5mC]*dA*d[5mC]*d[5mC]*kA*k[5mC]*kG; antisense) [Compound 1075881] | 23 % UTC
1076233 (k[5mC]*k[5mC]*kA*dA*dT*dA*dA*dA*dG*d[5mC]*dA*dA*dG*kT*kA*kG; antisense) [Compound 1076233] | 13 % UTC
1074377 (antisense kA*kA*kA*d[5mC]*dG*dG*dT*dT*d[5mC]*dT*dG*d[5mC]*dT*kG*kT*kG) [Compound 1074377] | 52 % UTC

Same assay, conditions: Table 24; Yap1 mRNA as percent of untreated control; 3-10-3 cEt gapmers targeting SEQ ID NO.: 1, and 2

Substance | YAP1 (% UTC)
1074218 (antisense kA*kG*kG*dG*d[5mC]*dT*d[5mC]*d[5mC]*dT*dG*d[5mC]*dA*dG*kT*kG*k[5mC]) [Compound 1074218] | 70 % UTC

Same assay, conditions: Table 25; Yap1 mRNA as percent of untreated control; 3-10-3 cEt gapmers targeting SEQ ID NO.: 1, and 2

Substance | YAP1 (% UTC)
1075179 (antisense kA*kA*kT*dT*dA*dG*d[5mC]*d[5mC]*dG*dG*dT*d[5mC]*d[5mC]*k[5mC]*kA*kG) [Compound 1075179] | 107 % UTC

Same assay, conditions: Table 32; Yap1 mRNA, percent of untreated control; 3-10-3 cEt gapmers targeting SEQ ID NO.: 1, and 2

Substance | YAP1 (% UTC)
1075954 (kA*kT*kT*dT*dA*dA*dG*dG*d[5mC]*dT*dG*dT*dG*kT*kT*k[5mC]; antisense) [compound 1075954] | 50 % UTC
1074994 (antisense kA*kA*kA*d[5mC]*dT*dA*dA*dA*dT*dG*dG*dA*d[5mC]*k[5mC]*kG*kG) [compound 1074994] | 94 % UTC

Same assay, conditions: Table 33; Yap1 mRNA, percent of untreated control; 3-10-3 cEt gapmers targeting SEQ ID NO.: 1, and 2

Substance | YAP1 (% UTC)
1075539 (k[5mC]*kT*kT*dA*dA*dG*dG*dG*dA*dT*dG*dG*dA*kA*k[5mC]*kA; antisense) [compound 1075539] | 79 % UTC
1074195 (antisense k[5mC]*k[5mC]*k[5mC]*dG*dG*dG*dT*d[5mC]*d[5mC]*dG*dG*dA*d[5mC]*kG*kG*k[5mC]) [compound 1074195] | 79 % UTC
1074259 (antisense kT*k[5mC]*kA*dT*dA*dT*dT*d[5mC]*dT*dG*d[5mC]*dT*dG*k[5mC]*kA*k[5mC]) [compound 1074259] | 38 % UTC
1074835 (k[5mC]*kT*kT*dG*d[5mC]*dG*dA*dG*dG*dA*dT*dA*dA*kA*kA*kT; antisense) [compound 1074835] | 30 % UTC
1074515 (kT*kA*kA*d[5mC]*dT*dG*dG*dA*dA*dA*dG*d[5mC]*dA*kG*kG*kG; antisense) [compound 1074515] | 9 % UTC

Same assay, conditions: Yap1 mRNA as percent of untreated control; A-431 cells; 3-10-3 cEt gapmers targeting SEQ ID NO.: 1, and 2; Table 30

Substance | YAP1 (% UTC)
1075568 (kT*kT*kA*dT*dT*dT*dA*dA*dG*dT*dT*dG*dG*kG*kA*kG; antisense) [compound 1075568] | 23 % UTC
1075440 (antisense kA*kA*kA*dT*dT*dA*dT*dT*dA*dG*dT*dT*dG*kT*k[5mC]*kG) [compound 1075440] | 28 % UTC
1076560 (kT*k[5mC]*k[5mC]*dA*dA*dA*dT*dA*dT*dG*dG*d[5mC]*dA*kT*kA*k[5mC]; antisense) [compound 1076560] | 10 % UTC
1074224 (antisense k[5mC]*kA*kG*dA*dG*dA*d[5mC]*dT*dA*d[5mC]*dT*d[5mC]*d[5mC]*kA*kG*kT) [compound 1074224] | 16 % UTC
1075216 (kT*kA*kT*dT*dT*dT*dA*d[5mC]*dA*d[5mC]*dG*dA*dA*k[5mC]*kT*kA; antisense) [compound 1075216] | 55 % UTC
